Reference: patent EP1013282A2, “Pharmaceutical and foodstuff compositions containing transferrins and antibacteral agents for potentiating host defence activity and the treatment of infections” (priority 1992, dated 1993)

Legend:
Proteus vulgaris OX.8 = experiment: Intraperitoneal Proteus vulgaris infection in mice: oral β-lactam with or without oral lactoferrin (Example 4); type: in vivo; conditions: for ED50: ddY mice n=6, survivors at one week; for simultaneous administration with lactoferrin reduced the ED50s to: fraction of ED50 of antibiotic alone, lactoferrin 0.5 mg/mouse
Protocol: Example 4-The efficacy potentiation of lactoferrin was examined using mice infected with Proteus vulgaris OX.8. Each group of six mice, strain ddY, four weeks old, were intraperitoneally infected with P. vulgaris suspended in 3% gastric mucin at a dose of 2 x 10^6 cells per mouse. One hour after the injection, lactoferrin (0.5 mg/mouse) was orally given simultaneously with cephalosporins. […]
Consequently, the efficacy potentiation of cephalosporin due to simultaneous treatment with lactoferrin is not restricted merely to the pathogens belonging to the genus Escherichia and Klebsiella, but also includes Proteus.

[1] = tested on: Escherichia coli strain c-11; experiment: Intraperitoneal E. coli infection in mice: oral cephalosporin with or without oral lactoferrin (Example 3); type: in vivo; conditions: for ED50: ddY mice n=6, survivors at one week; for ED50s reduced by simultaneous administration of lactoferrin to: fraction of ED50 of antibiotic alone, lactoferrin 1 mg/mouse
Protocol: Example 3-groups of six male mice strain ddY, four weeks old, were used in this experiment. They were intraperitoneally infected with 3% mucin suspension of Escherichia coli strain c-11 at a dose of 1 X 10^6 cells per mouse. Oral cephalosporin antibiotic was administered one hour after the injection simultaneously with bovine milk lactoferrin (26% iron saturation), 1 mg/mouse. Each control was given cephalosporin alone. The mice were observed one week after the injection and survivors were regarded as completely cured. […]

[2] = Serum concentrations of cephalosporins with or without lactoferrin, bioassay with Bacillus subtilis (Experimental Example 2)
Protocol: Experimental Example 2-The effect of lactoferrin on intestinal absorption of cephalosporin antibiotics was studied using male ddY mice (n=6), five weeks old.
The cephalosporin antibiotics used were cephalexin, cefixime, cefaclor and cefroxazine, and the serum , concentrations were determined by bioassay using Bacillus subtilis. The doses of the antibiotics and lactoferrin were 0.5 mg per mouse of each.

Escherichia coli c 11 [3] = experiment: Optimal dose of lactoferrin with cefaclor in E. coli infected mice (Example 6); type: in vivo; conditions: Lactoferrin dose 0.000 (cefaclor alone)
Protocol: Example 6-Optimal dose of lactoferrin was studied using mice strain ddY (n=6), four weeks old. The mice were intraperitoneally infected with Escherichia coli c 11 at a dose of 1 x 10^6 cells per mouse, and they were treated once orally with a mixture of lactoferrin and cefaclor one hour after the injection.

Escherichia coli c 11 [4] = experiment: Timing of lactoferrin administration with cefaclor in E. coli infected mice (Example 7); type: in vivo; conditions: control (no lactoferrin)
Description: Example 7-The timing of lactoferrin administration is very important not only from a clinical point of view, but also from an economical point of view, since it indicates whether or not the treatment with lactoferrin is prophylactic, or curative, or both. The timing was studied using the same model as described in Example 6. Cefaclor was orally given one hour after injection of the bacteria. […]

Escherichia coli c 11 [5] = experiment: Intraperitoneal E. coli infection in mice: other chemotherapies with or without lactoferrin (Example 5); type: in vivo; conditions: for ED50: gentamicin subcutaneous, ddY mice n=6; for potentiation of efficacy of the chemotherapy by lactoferrin: lactoferrin 0.5 mg/mouse oral, in vivo
Description: Example 5-The antimicrobial activities of chemotherapies were compared with or without lactoferrin treatment. The antimicrobial agents used were new quinolones, aminoglycoside antibiotic, gentamicin, erythromycin, chloramphenicol and minocycline. The efficacy was compared between the controls and lactoferrin groups. Mice strain ddY, four weeks old, were randomly allocated into groups (n=6) and intraperitoneally infected with Escherichia coli c 11 at a dose of 1 x 10^6 cells per mouse. One hour after the injection the chemotherapies and lactoferrin (0.5 mg/mouse) were simultaneously given orally except gentamicin was given subcutaneously since it is unabsorable from the intestinal tract. Evaluation of potentiation of the chemotherapies by lactoferrin is the same as described above. […]

[6] = tested on: Proteus mirabilis strain 1287; experiment: Upper urinary tract infection in mice, kidney colony count (Example 9); type: in vivo; conditions: for colony count ratio, lactoferrin (+) to (-): Lactoferrin (+) relative to Lactoferrin (-)
Description: Example 9-Male ICR mice, five weeks old, were dehydrated overnight, and Proteus mirabilis strain 1287 was inoculated into the bladder at a dose of 2 x 10^5 CFU per mouse. In order for the pathogen to colonize the kidneys, the urethra was closed by a clip for four hours. Ampicillin was orally given to the mice twice daily (10:00 am and 7:00 pm) for two consecutive days with or without oral lactoferrin therapy. On day 3 all mice were sacrificed and the kidneys were dissected ascetically. The kidneys were homogenized in sterile saline and the homogenate was spread over nutrient agar plates to determine the numbers of colonizing bacteria. […]

[7] = antibiotic alone (Lactoferrin -), oral one hour after infection
[8] = antibiotic with Lactoferrin + (0.5 mg/mouse, oral, simultaneous)
[9] = antibiotic with Lactoferrin + (bovine milk lactoferrin 1 mg/mouse, oral, simultaneous)
[10] = mice, oral, lactoferrin simultaneously, blood withdrawn periodically
[11] = agent alone (Lactoferrin -), oral, one hour after infection
[12] = agent with Lactoferrin + (0.5 mg/mouse oral, simultaneous)

For `N[C@@H](C(=O)N[C@@H]1C(=O)N2C(C(=O)O)=C(Cl)CS[C@H]12)c1ccccc1` [cefaclor], the ED50 (Proteus vulgaris OX.8; [7]) was 1.790 mg/mouse, the ED50 (Proteus vulgaris OX.8; [8]) was 0.058 mg/mouse and the “simultaneous administration with lactoferrin reduced the ED50s to” value (Proteus vulgaris OX.8) was 1/3. For the same molecule, the ED50 [1, 7] was 0.75 mg/mouse, the ED50 [1, 9] was 0.38 mg/mouse and the “ED50s reduced by simultaneous administration of lactoferrin to” value (from here on “ED50s reduced”) [1] was 1/2. For the same molecule, the “blood levels of the antibiotics with versus without lactoferrin” value [2, 10] was “virtually the same”, the ED50 (Escherichia coli c 11 [3]) was 1.510 mg/mouse and the ED50 (Escherichia coli c 11 [4]) was 1.846 mg/mouse.
Molecule gentamicin has an ED50 (Escherichia coli c 11 [5]; [11]) of 0.608 mg/mouse and an ED50 (Escherichia coli c 11 [5]; [12]) of 0.610 mg/mouse.
For `CC1(C)S[C@@H]2[C@H](NC(=O)[C@H](N)c3ccccc3)C(=O)N2[C@H]1C(=O)O` [ampicillin], the ED50 (Proteus vulgaris OX.8; [7]) was 0.300 mg/mouse, the ED50 (Proteus vulgaris OX.8; [8]) was 0.148 mg/mouse and the “simultaneous administration with lactoferrin reduced the ED50s to” value (Proteus vulgaris OX.8) was 1/2. For the same molecule, the “colony quantity, Lactoferrin (-)” value ([6]; ampicillin 0.01 mg/mouse) was 100,704 CFU/kidney, the “colony quantity, Lactoferrin (+)” value ([6]; ampicillin 0.01 mg/mouse with lactoferrin 1 mg per mouse) was 58 CFU/kidney and the “colony count ratio, lactoferrin (+) to (-)” value (from here on “colony count ratio”) ([6]; ampicillin 0.01 mg/mouse) was 1/1736. For the same molecule, the “colony quantity, Lactoferrin (-)” value ([6]; ampicillin 0.1 mg/mouse) was 63,216 CFU/kidney, the “colony quantity, Lactoferrin (+)” value ([6]; ampicillin 0.1 mg/mouse with lactoferrin 1 mg per mouse) was 36 CFU/kidney and the “colony count ratio” value ([6]; ampicillin 0.1 mg/mouse) was 1/1756. The “colony quantity, Lactoferrin (-)” value ([6]; ampicillin 1.0 mg/mouse oral twice daily for two days, ICR mice, kidneys on day 3) was 88 CFU/kidney, the “colony quantity, Lactoferrin (+)” value ([6]; ampicillin 1.0 mg/mouse with lactoferrin 1 mg per mouse) was 0 CFU/kidney and the “colony count ratio” value ([6]; ampicillin 1.0 mg/mouse) was <1/88.
Work on `CN(C)c1ccc(O)c2c1C[C@H]1C[C@H]3[C@H](N(C)C)C(O)=C(C(N)=O)C(=O)[C@@]3(O)C(O)=C1C2=O` [minocycline] yielded an ED50 (Escherichia coli c 11 [5]; [11]) of 1.859 mg/mouse and an ED50 (Escherichia coli c 11 [5]; [12]) of 0.631 mg/mouse.
Work on `COC1=C(C(=O)O)N2C(=O)[C@@H](NC(=O)[C@H](N)C3=CCC=CC3)[C@H]2SC1` [cefroxadine] yielded an ED50 (Proteus vulgaris OX.8; [7]) of 0.606 mg/mouse, an ED50 (Proteus vulgaris OX.8; [8]) of 0.312 mg/mouse and an ED50 [1, 7] of 1.27 mg/mouse. For the same molecule, the ED50 [1, 9] was 0.42 mg/mouse, the “ED50s reduced” value [1] was 1/3 and the “blood levels of the antibiotics with versus without lactoferrin” value [2, 10] was “virtually the same”.
For `O=C(N[C@H](CO)[C@H](O)c1ccc([N+](=O)[O-])cc1)C(Cl)Cl` [chloramphenicol], the ED50 (Escherichia coli c 11 [5]; [11]) was 5.11 mg/mouse, the ED50 (Escherichia coli c 11 [5]; [12]) was 1.94 mg/mouse and the “potentiation of efficacy of the chemotherapy by lactoferrin” value (Escherichia coli c 11 [5]) was “potentiated the efficacy”.
With `CC1=C(C(=O)O)N2C(=O)[C@@H](NC(=O)[C@H](N)c3ccccc3)[C@H]2SC1` [cefalexin] the ED50 (Proteus vulgaris OX.8; [7]) was 0.402 mg/mouse, the ED50 (Proteus vulgaris OX.8; [8]) was 0.185 mg/mouse and the “simultaneous administration with lactoferrin reduced the ED50s to” value (Proteus vulgaris OX.8) was 1/2. The ED50 [1, 7] was 8.54 mg/mouse, the ED50 [1, 9] was 1.42 mg/mouse and the “ED50s reduced” value [1] was 1/4. The “blood levels of the antibiotics with versus without lactoferrin” value ([2]; mouse, in vivo, po) was “virtually the same”.
Molecule `NC1CCN(c2nc3c(cc2F)c(=O)c(C(=O)O)cn3-c2ccc(F)cc2F)C1` (stereo not shown) [tosfloxacin] has an ED50 (Escherichia coli c 11 [5]; [11]) of 0.013 mg/mouse and an ED50 (Escherichia coli c 11 [5]; [12]) of 0.009 mg/mouse.
With `O=C(O)c1cn(C2CC2)c2cc(N3CCNCC3)c(F)cc2c1=O` [ciprofloxacin] the ED50 (Escherichia coli c 11 [5]; [11]) was 0.200 mg/mouse and the ED50 (Escherichia coli c 11 [5]; [12]) was 0.214 mg/mouse.
With `CC[C@H]1OC(=O)[C@H](C)[C@@H](O[C@H]2C[C@@](C)(OC)[C@@H](O)[C@H](C)O2)[C@H](C)[C@@H](O[C@@H]2O[C@H](C)C[C@H](N(C)C)[C@H]2O)[C@](C)(O)C[C@@H](C)C(=O)[C@H](C)[C@@H](O)[C@]1(C)O` [erythromycin] the “potentiation of efficacy of the chemotherapy by lactoferrin” value (Escherichia coli c 11 [5]) was “potentiated the efficacy”.
Work on `CC1COc2c(N3CCN(C)CC3)c(F)cc3c(=O)c(C(=O)O)cn1c23` (stereo not shown) [ofloxacin] yielded an ED50 (Escherichia coli c 11 [5]; [11]) of 0.231 mg/mouse and an ED50 (Escherichia coli c 11 [5]; [12]) of 0.251 mg/mouse.
In the case of `C=CC1=C(C(=O)O)N2C(=O)[C@@H](NC(=O)/C(=N\OCC(=O)O)c3csc(N)n3)[C@H]2SC1` [cefixime], the ED50 (Proteus vulgaris OX.8; [7]) was 0.519 mg/mouse, the ED50 (Proteus vulgaris OX.8; [8]) was 0.177 mg/mouse and the “simultaneous administration with lactoferrin reduced the ED50s to” value (Proteus vulgaris OX.8) was 1/3. For the same molecule, the ED50 [1, 7] was 1.03 mg/mouse, the ED50 [1, 9] was 0.23 mg/mouse and the “ED50s reduced” value [1] was 1/4. The “blood levels of the antibiotics with versus without lactoferrin” value [2, 10] was “virtually the same”.
